# What was measured:
# Dermatophagoides farinae [1] = assay: Insecticidal activity against Dermatophagoides farinae assessed as mortality at 1 g/m'2 after 24 hr by clip method; format: functional
# Dermatophagoides farinae [2] = assay: Insecticidal activity against Dermatophagoides farinae assessed as mortality after 24 hr by clip method; format: functional
# Dermatophagoides farinae [3] = assay: Insecticidal activity against Dermatophagoides farinae assessed as mortality at 0.10 g/m'2 after 24 hr by clip method; format: functional
# Dermatophagoides farinae [4] = assay: Insecticidal activity against Dermatophagoides farinae assessed as mortality at 0.50 g/m'2 after 24 hr by clip method; format: functional
# Tyrophagus putrescentiae [5] = assay: Insecticidal activity against Tyrophagus putrescentiae assessed as mortality at 0.20 g/m'2 after 24 hr by clip method; format: functional
# Tyrophagus putrescentiae [6] = assay: Insecticidal activity against Tyrophagus putrescentiae assessed as mortality at 0.50 g/m'2 after 24 hr by clip method; format: functional
# Tyrophagus putrescentiae [7] = assay: Insecticidal activity against Tyrophagus putrescentiae assessed as mortality after 24 hr by clip method; format: functional
# Tyrophagus putrescentiae [8] = assay: Insecticidal activity against Tyrophagus putrescentiae assessed as mortality at 1 g/m'2 after 24 hr by clip method; format: functional
# Tyrophagus putrescentiae [9] = assay: Insecticidal activity against Tyrophagus putrescentiae assessed as mortality at 0.10 g/m'2 after 24 hr by clip method; format: functional
# Dermatophagoides farinae [10] = assay: Insecticidal activity against Dermatophagoides farinae assessed as mortality at 0.20 g/m'2 after 24 hr by clip method; format: functional
# Carboxypeptidase A1 = biological target: T1, Carboxypeptidase A1 (Bos taurus, UniProt P00730); assay: Inhibition of Bos taurus (bovine) pancrease carboxypeptidase A after 15 min
# T1 sequence (P00730 whole entry): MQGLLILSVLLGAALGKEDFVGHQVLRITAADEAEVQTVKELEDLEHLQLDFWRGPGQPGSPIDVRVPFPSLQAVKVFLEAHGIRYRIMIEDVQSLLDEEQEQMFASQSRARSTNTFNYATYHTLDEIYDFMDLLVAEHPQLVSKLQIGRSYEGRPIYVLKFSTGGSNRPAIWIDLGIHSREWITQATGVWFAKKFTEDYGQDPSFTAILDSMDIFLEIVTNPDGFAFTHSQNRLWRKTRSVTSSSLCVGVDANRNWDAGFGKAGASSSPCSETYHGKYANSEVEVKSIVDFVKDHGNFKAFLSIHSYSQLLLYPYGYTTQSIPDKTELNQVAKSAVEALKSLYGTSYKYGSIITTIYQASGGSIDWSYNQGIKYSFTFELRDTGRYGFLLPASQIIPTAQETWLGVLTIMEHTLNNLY
# Coptotermes formosanus [11] = assay: Insecticidal activity against Coptotermes formosanus assessed as mortality at 0.020 g/m'2 after 48 hr; format: functional
# Coptotermes formosanus [12] = assay: Insecticidal activity against Coptotermes formosanus assessed as mortality at 0.100 g/m'2 after 24 hr; format: functional
# Coptotermes formosanus [13] = assay: Insecticidal activity against Coptotermes formosanus assessed as mortality at 0.100 g/m'2 after 48 hr; format: functional
# Dermatophagoides farinae [14] = assay: Insecticidal activity against Dermatophagoides farinae assessed as mortality at 0.05 g/m'2 after 24 hr by clip method; format: functional
# Pythium aphanidermatum = assay: Antifungal activity against Pythium aphanidermatum IFO 32440 after 15 days by agar dilution method; format: functional; conditions: IFO 32440, 360 h
# Coptotermes formosanus [15] = assay: Insecticidal activity against Coptotermes formosanus assessed as mortality at 0.050 g/m'2 after 48 hr; format: functional
# Coptotermes formosanus [16] = assay: Insecticidal activity against Coptotermes formosanus assessed as mortality at 0.020 g/m'2 after 24 hr; format: functional
# Thanatephorus cucumeris = assay: Antifungal activity against Thanatephorus cucumeris IFO 30445 after 15 days by agar dilution method; format: functional; conditions: IFO 30445, 360 h
# Coptotermes formosanus [17] = assay: Insecticidal activity against Coptotermes formosanus assessed as mortality at 0.200 g/m'2 after 24 hr; format: functional
# Coptotermes formosanus [18] = assay: Insecticidal activity against Coptotermes formosanus assessed as mortality at 0.010 g/m'2 after 48 hr; format: functional
# Coptotermes formosanus [19] = assay: Insecticidal activity against Coptotermes formosanus assessed as mortality at 1 g/m'2 after 48 hr; format: functional
# Collagenase ColG = biological target: T2, Collagenase ColG (Clostridium histolyticum, UniProt Q9X721); assay: Inhibition of Clostridium histolyticum collagenase after 15 min; parameters: species or system Hathewaya histolytica
# T2 sequence (Q9X721 whole entry): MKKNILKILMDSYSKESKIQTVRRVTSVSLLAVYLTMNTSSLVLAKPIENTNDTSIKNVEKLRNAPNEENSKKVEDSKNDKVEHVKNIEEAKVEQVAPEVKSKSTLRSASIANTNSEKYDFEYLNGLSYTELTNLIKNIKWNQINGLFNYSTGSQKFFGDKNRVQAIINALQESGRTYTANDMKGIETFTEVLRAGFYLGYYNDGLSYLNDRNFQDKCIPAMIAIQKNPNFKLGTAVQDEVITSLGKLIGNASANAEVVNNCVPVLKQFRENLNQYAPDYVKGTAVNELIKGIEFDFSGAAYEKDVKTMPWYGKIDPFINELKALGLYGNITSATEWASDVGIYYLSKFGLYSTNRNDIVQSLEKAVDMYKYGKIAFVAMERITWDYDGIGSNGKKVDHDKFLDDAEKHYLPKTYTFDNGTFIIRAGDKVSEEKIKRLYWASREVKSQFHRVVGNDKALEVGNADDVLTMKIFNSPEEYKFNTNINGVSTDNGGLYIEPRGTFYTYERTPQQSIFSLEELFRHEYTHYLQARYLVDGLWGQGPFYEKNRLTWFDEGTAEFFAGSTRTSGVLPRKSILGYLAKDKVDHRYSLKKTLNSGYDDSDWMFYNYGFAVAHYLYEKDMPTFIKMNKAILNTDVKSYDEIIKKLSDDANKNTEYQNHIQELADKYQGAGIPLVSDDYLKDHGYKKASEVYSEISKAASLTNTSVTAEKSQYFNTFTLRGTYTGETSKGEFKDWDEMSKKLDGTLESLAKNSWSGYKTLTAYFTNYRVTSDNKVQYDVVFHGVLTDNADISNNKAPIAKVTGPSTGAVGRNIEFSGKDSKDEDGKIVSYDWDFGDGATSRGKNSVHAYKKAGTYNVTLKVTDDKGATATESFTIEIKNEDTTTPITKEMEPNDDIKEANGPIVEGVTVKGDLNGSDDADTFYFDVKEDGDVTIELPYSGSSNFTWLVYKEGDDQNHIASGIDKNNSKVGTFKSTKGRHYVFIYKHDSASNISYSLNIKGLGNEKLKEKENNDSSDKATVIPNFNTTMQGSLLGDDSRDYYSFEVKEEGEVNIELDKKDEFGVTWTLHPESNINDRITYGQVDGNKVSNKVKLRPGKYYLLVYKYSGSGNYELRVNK
# Fusarium solani = assay: Antifungal activity against Fusarium solani IFO 9955 after 15 days by agar dilution method; format: functional; conditions: IFO 9955, 360 h
# Dermatophagoides farinae [20] = assay: Insecticidal activity against Dermatophagoides farinae assessed as mortality at 0.60 g/m'2 after 24 hr by clip method; format: functional
# Coptotermes formosanus [21] = assay: Insecticidal activity against Coptotermes formosanus assessed as mortality; format: functional
# Thermolysin = biological target: T3, Thermolysin (Bacillus thermoproteolyticus, UniProt P00800); assay: Inhibition of Bacillus thermoproteolyticus thermolysin after 15 min
# T3 sequence (P00800 whole entry): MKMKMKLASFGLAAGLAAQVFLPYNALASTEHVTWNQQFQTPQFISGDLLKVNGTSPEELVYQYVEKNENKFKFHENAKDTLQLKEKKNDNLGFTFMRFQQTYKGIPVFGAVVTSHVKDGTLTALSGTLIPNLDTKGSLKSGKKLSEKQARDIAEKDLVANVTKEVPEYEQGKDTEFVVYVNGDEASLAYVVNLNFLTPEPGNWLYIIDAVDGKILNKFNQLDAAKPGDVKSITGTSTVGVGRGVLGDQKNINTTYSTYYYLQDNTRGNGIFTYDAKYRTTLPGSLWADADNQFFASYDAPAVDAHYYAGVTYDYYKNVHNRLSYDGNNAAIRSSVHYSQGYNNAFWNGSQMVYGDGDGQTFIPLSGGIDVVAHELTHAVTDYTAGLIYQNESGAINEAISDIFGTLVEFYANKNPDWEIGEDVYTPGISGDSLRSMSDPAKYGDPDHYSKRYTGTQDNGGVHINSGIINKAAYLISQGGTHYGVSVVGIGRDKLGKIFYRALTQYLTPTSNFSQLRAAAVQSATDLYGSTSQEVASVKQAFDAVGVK
# Tyrophagus putrescentiae [22] = assay: Insecticidal activity against Tyrophagus putrescentiae assessed as mortality at 0.40 g/m'2 after 24 hr by clip method; format: functional
# Dermatophagoides farinae [23] = assay: Insecticidal activity against Dermatophagoides farinae assessed as mortality at 0.80 g/m'2 after 24 hr by clip method; format: functional
# Tyrophagus putrescentiae [24] = assay: Insecticidal activity against Tyrophagus putrescentiae assessed as mortality at 0.60 g/m'2 after 24 hr by clip method; format: functional
# Phomopsis obscurans = assay: Antifungal activity against Phomopsis obscurans MAFF 744018 after 15 days by agar dilution method; format: functional; conditions: Paraphomopsis obscurans, MAFF 744018, 360 h
# Dermatophagoides farinae [25] = assay: Insecticidal activity against Dermatophagoides farinae assessed as mortality at 0.03 g/m'2 after 24 hr by clip method; format: functional
# Colletotrichum lagenaria = assay: Antifungal activity against Colletotrichum lagenaria after 15 days by agar dilution method; format: functional; conditions: 360 h
# Coptotermes formosanus [26] = assay: Insecticidal activity against Coptotermes formosanus assessed as mortality at 0.200 g/m'2 after 48 hr; format: functional
# Coptotermes formosanus [27] = assay: Insecticidal activity against Coptotermes formosanus assessed as mortality at 0.050 g/m'2 after 24 hr; format: functional
# Tyrophagus putrescentiae [28] = assay: Insecticidal activity against Tyrophagus putrescentiae assessed as mortality at 0.80 g/m'2 after 24 hr by clip method; format: functional
# Coptotermes formosanus [29] = assay: Insecticidal activity against Coptotermes formosanus assessed as mortality at 0.010 g/m'2 after 24 hr; format: functional
# Dermatophagoides farinae [30] = assay: Insecticidal activity against Dermatophagoides farinae assessed as mortality at 0.40 g/m'2 after 24 hr by clip method; format: functional
# Botrytis cinerea = assay: Antifungal activity against Botryotinia fuckeliana IFO 30915 after 15 days by agar dilution method; format: functional; conditions: IFO 30915, 360 h
# Coptotermes formosanus [31] = assay: Insecticidal activity against Coptotermes formosanus assessed as mortality at 1 g/m'2 after 24 hr; format: functional
# [32] = system: Colletotrichum orbiculare; assay: Antifungal activity against Colletotrichum orbiculare MAFF 306518 after 15 days by agar dilution method; format: functional; conditions: MAFF 306518, 360 h
# Coptotermes formosanus [33] = assay: Insecticidal activity against Coptotermes formosanus assessed as mortality at 0.00010 g/m'2 after 24 hr; format: functional
# Coptotermes formosanus [34] = assay: Insecticidal activity against Coptotermes formosanus assessed as mortality at 0.00010 g/m'2 after 48 hr; format: functional
# Coptotermes formosanus [35] = assay: Insecticidal activity against Coptotermes formosanus assessed as mortality at 0.00001 g/m'2 after 24 hr; format: functional
# Coptotermes formosanus [36] = assay: Insecticidal activity against Coptotermes formosanus assessed as mortality at 0.00050 g/m'2 after 48 hr; format: functional
# Coptotermes formosanus [37] = assay: Insecticidal activity against Coptotermes formosanus assessed as mortality at 0.00025 g/m'2 after 48 hr; format: functional
# Coptotermes formosanus [38] = assay: Insecticidal activity against Coptotermes formosanus assessed as mortality at 0.00025 g/m'2 after 24 hr; format: functional
# Coptotermes formosanus [39] = assay: Insecticidal activity against Coptotermes formosanus assessed as mortality at 0.00005 g/m'2 after 48 hr; format: functional
# Coptotermes formosanus [40] = assay: Insecticidal activity against Coptotermes formosanus assessed as mortality at 0.00005 g/m'2 after 24 hr; format: functional
# Coptotermes formosanus [41] = assay: Insecticidal activity against Coptotermes formosanus assessed as mortality at 0.00050 g/m'2 after 24 hr; format: functional
compound,measurement,setting,value
CCN(CC)C(=O)c1cccc(C)c1 [DIETHYLTOLUAMIDE],mortality,Dermatophagoides farinae [1],45.5%
same,LC50,Dermatophagoides farinae [2],0.79 g/m2
same,mortality,Dermatophagoides farinae [3],0%
same,mortality,Dermatophagoides farinae [4],20.5%
same,mortality,Tyrophagus putrescentiae [5],4.5%
same,mortality,Tyrophagus putrescentiae [6],18.9%
same,LC50,Tyrophagus putrescentiae [7],1.46 g/m2
same,mortality,Tyrophagus putrescentiae [8],67.1%
same,mortality,Tyrophagus putrescentiae [9],0%
same,mortality,Dermatophagoides farinae [10],7.2%
O=c1cccccc1O [TROPOLONE],mortality,Dermatophagoides farinae [1],100%
same,IC50,Carboxypeptidase A1,2.73 µM
same,LC50,Dermatophagoides farinae [2],0.08 g/m2
same,mortality,Coptotermes formosanus [11],57.9%
same,mortality,Coptotermes formosanus [12],78.9%
same,mortality,Dermatophagoides farinae [3],24.5%
same,mortality,Coptotermes formosanus [13],89.5%
same,mortality,Dermatophagoides farinae [14],7.5%
same,MIC,Pythium aphanidermatum,6 µg/mL
same,mortality,Coptotermes formosanus [15],77.8%
same,mortality,Coptotermes formosanus [16],37.5%
same,mortality,Tyrophagus putrescentiae [5],9.6%
same,MIC,Thanatephorus cucumeris,12 µg/mL
same,mortality,Coptotermes formosanus [17],100%
same,mortality,Coptotermes formosanus [18],0%
same,mortality,Coptotermes formosanus [19],100%
same,IC50,Collagenase ColG,46.8 µM
same,MIC,Fusarium solani,25 µg/mL
same,mortality,Dermatophagoides farinae [20],100%
same,LC50,Coptotermes formosanus [21],0.04 g/m2
same,IC50,Thermolysin,71.1 µM
same,mortality,Tyrophagus putrescentiae [22],55.8%
same,mortality,Dermatophagoides farinae [23],100%
same,mortality,Tyrophagus putrescentiae [24],79.8%
same,LC50,Tyrophagus putrescentiae [7],0.11 g/m2
same,MIC,Phomopsis obscurans,12 µg/mL
same,mortality,Dermatophagoides farinae [25],0%
same,MIC,Colletotrichum lagenaria,12 µg/mL
same,mortality,Coptotermes formosanus [26],100%
same,mortality,Coptotermes formosanus [27],45%
same,mortality,Tyrophagus putrescentiae [8],100%
same,mortality,Tyrophagus putrescentiae [28],100%
same,mortality,Coptotermes formosanus [29],0%
same,mortality,Dermatophagoides farinae [30],100%
same,mortality,Dermatophagoides farinae [10],95.7%
same,MIC,Botrytis cinerea,25 µg/mL
same,mortality,Coptotermes formosanus [31],100%
same,MIC,[32],12 µg/mL
CCOP(=S)(OCC)Oc1nc(Cl)c(Cl)cc1Cl [CHLORPYRIFOS],mortality,Coptotermes formosanus [33],25%
same,mortality,Coptotermes formosanus [34],75%
same,mortality,Coptotermes formosanus [35],0%
same,mortality,Coptotermes formosanus [36],100%
same,mortality,Coptotermes formosanus [37],100%
same,LC50,Coptotermes formosanus [21],0.00016 g/m2
same,mortality,Coptotermes formosanus [38],60%
same,mortality,Coptotermes formosanus [39],40%
same,mortality,Coptotermes formosanus [40],10%
same,mortality,Coptotermes formosanus [41],100%

# Source: ChEMBL document CHEMBL3046644, “Biological activity of tropolone” (Biol Pharm Bull, 2003)
